Experimental data taken from patent publication US11884647B2, “Compounds and methods for targeting pathogenic blood vessels” (THE REGENTS OF THE UNIVERSITY OF CALIFORNIA, priority 2019, dated 2024).

system: tumor endothelial cells (CT26.CL25 colon cancer tumor); assay: Colon CT26 ex vivo model of tumor angiogenesis; format: cell-based; conditions: Mus musculus, CT26, 48 h, read-out: Cell death
Method: This example describes a procedure to prepare a primary tumor angiogenesis model for assessing the efficacy of anti-cancer candidate agents.
1. The day before the experiment, spray all necessary tools with 70% ethanol and sterilize them under UV light overnight, including blade, dissecting and micro-dissecting scissors and […]. Place 24-well dishes at 4° C. to pre-chill plates and thaw Matrigel 24 hours before tumor dissection.
2. Spray 70% ethanol on working bench. Prepare two sterile petri dishes with 10 mL sterile PBS. Steps 3 and 4 are for mouse tumor models. For fresh human tumor, directly go to step 5.
3. Euthanize the tumor-bearing mice. Spray 70% ethanol on the mouse and remove the tumor using sterilized dissecting tools (avoid the fur). Rinse the tumor in petri dish with sterile PBS to remove ethanol and fur. Transfer the tumor to a new petri dish with PBS for dissection. Place the dish on ice.
4. Using pre-chilled sterile pipet tips to seed regular Matrigel in 24 well plates on ice. Matrigel (30 μL) is dropped in the middle of each well without touching the edge of the well (avoid introducing bubbles if possible).
5. Cut the tumor in halves using the sterile blade. Identify and isolate healthy tumor tissue that is not necrotic and is within the tumor capsule. Cut the healthy tumor tissue into small pieces. For instance, a suitable size for the tumor tissue is 0.5 mm (H)×0.5 mm (L)×0.3 mm (D) with a total volume of 0.075 mm^3.
6. Gently transfer and embed each tumor piece in the Matrigel drop in the 24-well plate. Place the embedded piece in the bottom and middle of each Matrigel drop. Keep the plate on ice all the time.
7. After seeding the tumor pieces, plates are incubated in a 37° C. cell culture incubator without medium for 10 minutes in order for the Matrigel to solidify.
8. Endothelial Growth Medium (0.5 mL) is added to each well and incubated at 37° C. with 5% CO2. Wait until the new endothelial cells have grown out of the tumor or are larger than 3 mm in diameter until treatment. This usually takes 4 days for the LL2 Lewis lung cancer model and 7 days for the CT26 colon cancer model. For human tumor models, the growth time is typically 2-3 weeks, depending on the tumor type. Media is changed every 4 days during prolonged culture. Typically, when the tumor tissue grows to 2 mm in diameter, it is good for drug testing. A size of about 3 mm in diameter can make visualization easier.
9. When the assay is ready to be analyzed for cell death (e.g., 48 hours after drug addition), prepare the dye mixture by mixing 6 μL of green dye to stain live cells (5 mg/mL Fluorescein diacetate or FDA in DMSO) with 30 μL of red dye (2.5 mg/mL Propidium iodide or PI in PBS) to stain dead cells in an Eppendorf tube. The FDA dye needs to be stored frozen in a −20° C. freezer because it has a labile ester bond.
10. Add 1 μL of the dye mixture to each well of the 24-well dish. It is usually performed one 24-well dish at a time given the amount of time needed to take pictures (the green dye is not as stable in the cells in the long term).
11. Gently rock the dish a few times to mix the dye with the media in the wells and incubate the dish at 37° C. for 10 min (too long incubation can make the green signal too intense).
12. Wash each well with 0.5 mL of sterile PBS and then add 0.5 mL of phenol red free SFM to each well. Alternatively 0.5 mL of regular Endothelial Cell Growth Media can be added to each well if this well needs to be continuously maintained after the experiment.
13. Look through all wells on an inverted microscope using the 2× objective lens to observe morphological changes.
14. Taking pictures in the red and green channels would allow not only the recording of the result but also more accurate quantitation of the result. To take pictures for all the wells, first pick a well that has robust red and green signals. […]

Structure (SMILES)	cytotoxicity at 40 µM
CCc1ccc(S(=O)(=O)c2cnc3ccc(OC(F)(F)F)cc3c2N2CCCN(CC(=O)O)CC2)cc1 [compound 42, 2-(4-(3-((4-ethylphenyl)sulfonyl)-6-(trifluoromethoxy)quinolin-4-yl)-1,4-diazepan-1-yl)acetic acid]	0%
COc1ccc(S(=O)(=O)c2cnc3ccc(OC(F)(F)F)cc3c2N2CCC(N3CCCCC3)CC2)cc1 [compound 43, 4-([1,4′-bipiperidin]-1′-yl)-3-((4-methoxyphenyl)sulfonyl)-6-(trifluoromethoxy)quinoline]	90%
CN1CCCN(c2c(S(=O)(=O)c3ccc([N+](=O)[O-])cc3)cnc3ccc(OC(F)(F)F)cc23)CC1 [compound 60, 4-(4-methyl-1,4-diazepan-1-yl)-3-((4-nitrophenyl)sulfonyl)-6-(trifluoromethoxy)quinoline]	5%
CCCCOc1ccc2ncc(S(=O)(=O)c3ccc(OC)c(OC)c3)c(N(CC)CC)c2c1 [compound 123, 6-butoxy-3-((3,4-dimethoxyphenyl)sulfonyl)-N,N-diethylquinolin-4-amine]	20%
CCCCN(CCCC)c1c(S(=O)(=O)c2ccc(OC)c(OC)c2)cnc2ccc(SC)cc12 [compound 124, N,N-dibutyl-3-((3,4-dimethoxyphenyl)sulfonyl)-6-(methylthio)quinolin-4-amine]	20%
CCOC(=O)c1ccc2ncc(S(=O)(=O)c3ccc(CC)cc3)c(N3CCC(O)(c4ccc(CC)cc4)CC3)c2c1 [compound 128, ethyl 4-(4-(4-ethylphenyl)-4-hydroxypiperidin-1-yl)-3-((4-ethylphenyl)sulfonyl)quinoline-6-carboxylate]	10%
CCc1ccc(C2(O)CCN(c3c(S(=O)(=O)c4ccc(OC)cc4)cnc4ccc(OC(F)(F)F)cc34)CC2)cc1 [compound 129, 4-(4-ethylphenyl)-1-(3-((4-methoxyphenyl)sulfonyl)-6-(trifluoromethoxy)quinolin-4-yl)piperidin-4-ol]	0%
CCOC(=O)c1ccc2ncc(S(=O)(=O)c3ccc(CC)cc3)c(N3CCC(N4CCC(O)CC4)CC3)c2c1 [compound 130, ethyl 3-((4-ethylphenyl)sulfonyl)-4-(4-hydroxy-[1,4′-bipiperidin]-1′-yl)quinoline-6-carboxylate]	40%
CCOC(=O)c1ccc2ncc(S(=O)(=O)c3ccc(CC)cc3)c(N3CCCN(CCN(CC)CC)CC3)c2c1 [compound 131, ethyl 4-(4-(2-(diethylamino)ethyl)-1,4-diazepan-1-yl)-3-((4-ethylphenyl)sulfonyl)quinoline-6-carboxylate]	50%
CCOC(=O)c1ccc2ncc(S(=O)(=O)c3ccc(CC)cc3)c(N3CCC(OCCN(CC)CC)CC3)c2c1 [compound 132, ethyl 4-(4-(2-(diethylamino)ethoxy)piperidin-1-yl)-3-((4-ethylphenyl)sulfonyl)quinoline-6-carboxylate]	40%
CCOC(=O)c1ccc2ncc(S(=O)(=O)c3ccc(CC)cc3)c(N3CCCC(O)C3)c2c1 (stereo not drawn) [compound 135, ethyl 3-((4-ethylphenyl)sulfonyl)-4-(3-hydroxypiperidin-1-yl)quinoline-6-carboxylate]	30%
CCOC(=O)c1ccc2ncc(S(=O)(=O)c3ccc(OC)cc3)c(N3CCC(N4CCCCC4)CC3)c2c1 [compound 136, ethyl 4-([1,4′-bipiperidin]-1′-yl)-3-((4-methoxyphenyl)sulfonyl)quinoline-6-carboxylate]	30%
CCOC(=O)c1ccc2ncc(S(=O)(=O)c3ccc(OC)cc3)c(N3CCCC(O)C3)c2c1 (stereo not drawn) [compound 137, ethyl 4-(3-hydroxypiperidin-1-yl)-3-((4-methoxyphenyl)sulfonyl)quinoline-6-carboxylate]	40%
CCOC(=O)c1ccc2ncc(S(=O)(=O)c3ccc(OC)cc3)c(N3CCC(N4CCC(O)CC4)CC3)c2c1 [compound 138, ethyl 4-(4-hydroxy-[1,4′-bipiperidin]-1′-yl)-3-((4-methoxyphenyl)sulfonyl)quinoline-6-carboxylate]	20%
CCOC(=O)c1ccc2ncc(S(=O)(=O)c3ccc(OC)cc3)c(N3CCCN(CCN(CC)CC)CC3)c2c1 [compound 139, ethyl 4-(4-(2-(diethylamino)ethyl)-1,4-diazepan-1-yl)-3-((4-methoxyphenyl)sulfonyl)quinoline-6-carboxylate]	40%
CCOC(=O)c1ccc2ncc(S(=O)(=O)c3ccc(OC)cc3)c(N3CCC(OCCN(CC)CC)CC3)c2c1 [compound 140, ethyl 4-(4-(2-(diethylamino)ethoxy)piperidin-1-yl)-3-((4-methoxyphenyl)sulfonyl)quinoline-6-carboxylate]	60%
CCOC(=O)c1ccc2ncc(S(=O)(=O)c3ccc(OC)cc3)c(N3CCCN(C)CC3)c2c1 [compound 144, ethyl 3-((4-methoxyphenyl)sulfonyl)-4-(4-methyl-1,4-diazepan-1-yl)quinoline-6-carboxylate]	30%
CCc1ccc(S(=O)(=O)c2cnc3ccc(OC(F)(F)F)cc3c2N2CCC(O)(c3ccc(OC)cc3)CC2)cc1 [compound 145, 1-(3-((4-ethylphenyl)sulfonyl)-6-(trifluoromethoxy)quinolin-4-yl)-4-(4-methoxyphenyl)piperidin-4-ol]	30%
CCc1ccc(S(=O)(=O)c2cnc3ccc(OC(F)(F)F)cc3c2N2CCC(O)(c3cccc(OC)c3)CC2)cc1 [compound 146, 1-(3-((4-ethylphenyl)sulfonyl)-6-(trifluoromethoxy)quinolin-4-yl)-4-(3-methoxyphenyl)piperidin-4-ol]	0%
CCc1ccc(S(=O)(=O)c2cnc3ccc(OC(F)(F)F)cc3c2N2CCC(O)(c3ccc4c(c3)OCO4)CC2)cc1 [compound 147, 4-(benzo[d][1,3]dioxol-5-yl)-1-(3-((4-ethylphenyl)sulfonyl)-6-(trifluoromethoxy)quinolin-4-yl)piperidin-4-ol]	0%
CCOC(=O)c1ccc2ncc(S(=O)(=O)c3ccc(CC)cc3)c(N3CCC(O)(c4ccc(OC)cc4)CC3)c2c1 [compound 148, ethyl 3-((4-ethylphenyl)sulfonyl)-4-(4-hydroxy-4-(4-methoxyphenyl)piperidin-1-yl)quinoline-6-carboxylate]	0%
CCOC(=O)c1ccc2ncc(S(=O)(=O)c3ccc(CC)cc3)c(N3CCC(O)(c4cccc(OC)c4)CC3)c2c1 [compound 149, ethyl 3-((4-ethylphenyl)sulfonyl)-4-(4-hydroxy-4-(3-methoxyphenyl)piperidin-1-yl)quinoline-6-carboxylate]	20%
COc1ccc(S(=O)(=O)c2cnc3ccc(OC(F)(F)F)cc3c2N2CCC(O)(c3cccc(OC)c3)CC2)cc1 [compound 150, 4-(3-methoxyphenyl)-1-(3-((4-methoxyphenyl)sulfonyl)-6-(trifluoromethoxy)quinolin-4-yl)piperidin-4-ol]	10%
COc1ccc(S(=O)(=O)c2cnc3ccc(SC)cc3c2N2CCC(N3CCC(O)CC3)CC2)cc1OC [compound 153, 1′-(3-((3,4-dimethoxyphenyl)sulfonyl)-6-(methylthio)quinolin-4-yl)-[1,4′-bipiperidin]-4-ol]	20%
CCCCOc1ccc(S(=O)(=O)c2cnc3ccc(SC)cc3c2N2CCCN(CCN3CCCC3)CC2)cc1 [compound 207, 3-((4-butoxyphenyl)sulfonyl)-6-(methylthio)-4-(4-(2-(pyrrolidin-1-yl)ethyl)-1,4-diazepan-1-yl)quinoline]	100%

system: tumor endothelial cells (LL/2 lung cancer tumor); assay: Lung LL2 ex vivo model of tumor angiogenesis; format: cell-based, mouse; conditions: Mus musculus, Endothelial cell, 48 h, read-out: Cell death
Outline: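 Read-out is live/dead fluorescence imaging (fluorescein diacetate green, propidium iodide red, 10 min at 37° C) at 2×, taken e.g. 48 h after drug addition. Fragments of mouse LL2 tumor are cultured in Matrigel with endothelial growth medium, usually 4 days, until new endothelial cells grow out, then treated.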

Structure (SMILES)	cytotoxicity at 40 µM
CCc1ccc(S(=O)(=O)c2cnc3ccc(OC(F)(F)F)cc3c2N2CCCN(CC(=O)O)CC2)cc1 [compound 42, 2-(4-(3-((4-ethylphenyl)sulfonyl)-6-(trifluoromethoxy)quinolin-4-yl)-1,4-diazepan-1-yl)acetic acid]	30%
COc1ccc(S(=O)(=O)c2cnc3ccc(OC(F)(F)F)cc3c2N2CCC(N3CCCCC3)CC2)cc1 [compound 43, 4-([1,4′-bipiperidin]-1′-yl)-3-((4-methoxyphenyl)sulfonyl)-6-(trifluoromethoxy)quinoline]	100%
